Paper PMC9227250, “Design, Synthesis and Cytotoxic Activity Evaluation of Newly Synthesized Amides-Based TMP Moiety as Potential Anticancer Agents over HepG2 Cells” (Molecules, 2022)

Columns and labels:
pan HDAC = system: pan HDAC; set-up: method as in doi:10.1039/D0NJ01274B; details: read-out: pan HDAC inhibitory activity IC50; cited from earlier work
HepG2 cells = assay: MTT cytotoxicity assay against HepG2 cell line; format: cell-based; details: Homo sapiens, mean of three independent replicates ± SE
Description: (§1) Cytotoxic activity was carried out using MTT colorimetric antiproliferative assay to investigate the effect of the prepared molecules on HepG2 as well as HL-7702 cell lines. See Section 4.3.1 in Supplementary Data.
(§2) 4.3.1. Cytotoxic activity evaluation
(§3) To measure the cytotoxic actvity of the amide derivatives 2-6e in hepatocellular carcinoma (HepG2) cell line (ATCC Cat No. HB-8065) as well as normal human liver cell line HL-7702 (ATCC Cat. No. 77402), cell viability assay was assessed using MTT assay method. Cells at density of 1 x 104 were seeded in a 96-well plate at 37 °C for 24 h under 5% CO2. After incubation, the cells were treated with different concentrations of the test schiff bases 2-6e and incubated for 24 h, then 20 µl of MTT solution at 5 mg/mL was applied and incubated for 4 h at 37 °C . Dimethyl sulphoxide (DMSO) in volume of 100 µl was added to each well to dissolve the purple formazan that had formed. The color intensity of the formazan product, which represents the growth condition of the cells, is quantified by using an ELISA plate reader (EXL 800, USA) at 450 nm absorbance. The experimental conditions were carried out with at least three replicates, and the experiments were repeated at least three times. […]

HL-7702 cells = assay: MTT cytotoxicity assay against normal liver cell line HL-7702; format: cell-based, human; details: Homo sapiens, L02; MTT assay, normal liver cell line HL-7702, mean of three independent replicates ± SE
Description: as §1, §2, §3

β-tubulin = molecular target: T1, β-tubulin (Homo sapiens, UniProt P07437+P68363); assay: Tubulin polymerization inhibition assay (Human Beta-tubulin ELISA kit); format: biochemical; details: ELISA for β-tubulin, compared with untreated control cells
T1 construct: […]
Description: See Section 4.3.3 in Supplementary Data.
4.3.3. Tubulin inhibitions Assay […]
manufacturer’s instructions using # abcam Human Beta-tubulin simplestep ELISA Kit […]
Cell cycle analysis in HepG2 cells was investigated using fluorescent Annexin V - FITC/ PI detection kit (BioVision EZCellTM Cell Cycle Analysis Kit Catalog #K920) […]
After treatment, cells were washed twice in PBS, fixed in 70% ethanol, rinsed again with PBS. Cells were collected by centrifugation at 2000 rpm for 5 min and stained with DNA […]
The samples were immediately analyzed using Facs Calibur flow cytometer (Becton and Dickinson, Heidelberg, Germany).
Apoptosis in HepG2 cells was investigated using fluorescent Annexin V-FITC/ PI detection kit (BioVision Annexin V-FITC Apoptosis Detection Kit, Catalog #: K101) […]
immediately analyzed using FACS Calibur flow cytometer (Becton and Dickinson, […]
Caspase 3/7 in HepG2 cells was investigated using CellEvent® Caspase 3/7 Green Detection Flow Cytometry Assay Kit. Caspase 3/7 activity in HepG2 cell line was […]
CellEvent® caspase 3/7 green detection flow cytometry assay kit according to manufacturer’s directions. […]
harvested and washed with ice cold PBS, and cell lysates were prepared and […]

HDAC1 = details: cited from earlier work

T1 sequence (P07437 whole entry): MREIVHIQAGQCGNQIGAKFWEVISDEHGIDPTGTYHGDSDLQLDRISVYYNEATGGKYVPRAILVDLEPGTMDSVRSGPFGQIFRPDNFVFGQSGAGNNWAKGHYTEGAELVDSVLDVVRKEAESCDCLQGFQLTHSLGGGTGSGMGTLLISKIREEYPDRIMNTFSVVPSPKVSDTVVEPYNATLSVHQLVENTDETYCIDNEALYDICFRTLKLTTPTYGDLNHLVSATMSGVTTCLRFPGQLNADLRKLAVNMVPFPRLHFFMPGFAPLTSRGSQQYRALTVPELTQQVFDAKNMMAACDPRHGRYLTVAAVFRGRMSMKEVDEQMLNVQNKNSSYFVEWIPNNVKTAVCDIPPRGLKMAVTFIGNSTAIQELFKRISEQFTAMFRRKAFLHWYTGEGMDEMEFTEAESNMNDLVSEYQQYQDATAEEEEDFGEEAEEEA
T1 sequence (P68363 whole entry): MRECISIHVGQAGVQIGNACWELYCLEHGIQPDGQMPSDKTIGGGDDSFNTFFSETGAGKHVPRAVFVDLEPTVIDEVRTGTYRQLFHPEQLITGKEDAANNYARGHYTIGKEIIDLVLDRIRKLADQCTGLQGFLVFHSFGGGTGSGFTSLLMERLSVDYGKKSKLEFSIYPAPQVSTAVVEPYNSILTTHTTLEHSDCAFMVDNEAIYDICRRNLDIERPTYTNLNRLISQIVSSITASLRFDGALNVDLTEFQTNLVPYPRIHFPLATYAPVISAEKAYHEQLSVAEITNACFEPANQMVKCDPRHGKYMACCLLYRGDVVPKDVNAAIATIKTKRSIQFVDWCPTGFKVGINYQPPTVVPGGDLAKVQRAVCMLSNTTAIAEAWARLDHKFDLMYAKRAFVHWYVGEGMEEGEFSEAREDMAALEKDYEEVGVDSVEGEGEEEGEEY

| melting point [°C] | SMILES | IC50 (HepG2 cells) [µM] | other results |
| --- | --- | --- | --- |
| 235 to 237 | COc1cc(C(=O)NC(=Cc2ccco2)C(=O)NNC(=O)c2cccc(O)c2)cc(OC)c1OC [Compound 4a, N-(1-(furan-2-yl)-3-(2-(3-hydroxybenzoyl)hydrazinyl)-3-oxoprop-1-en-2-yl)-3,4,5-trimethoxybenzamide] | 13.4 ± 0.56 |  |
| 228 to 230 | COc1cc(C(=O)NC(=Cc2ccco2)C(=O)NNC(=O)c2ccncc2)cc(OC)c1OC [Compound 4b, N-(1-(furan-2-yl)-3-(2-isonicotinoylhydrazinyl)-3-oxoprop-1-en-2-yl)-3,4,5-trimethoxybenzamide] | 8.36 ± 0.51 |  |
| 223 to 225 | COc1cc(C(=O)NC(=Cc2ccc(C#N)cc2)C(=O)NNC(=O)/C(=C/c2ccco2)NC(=O)c2cc(OC)c(OC)c(OC)c2)cc(OC)c1OC [Compound 6b, N-((1Z)-3-(2-(3-(4-cyanophenyl)-2-(3,4,5-trimethoxybenzamido)acryloyl)hydrazinyl)-1-(furan-2-yl)-3-oxoprop-1-en-2-yl)-3,4,5-trimethoxybenzamide] | 0.92 ± 0.1 | IC50 (HL-7702 cells): 11.1 ± 0.18 µM |
| 215 to 217 | COc1cc(C(=O)NC(=Cc2ccc(N(C)C)cc2)C(=O)NNC(=O)/C(=C/c2ccco2)NC(=O)c2cc(OC)c(OC)c(OC)c2)cc(OC)c1OC [Compound 6c, N-((1Z)-3-(2-(3-(4-(dimethylamino)phenyl)-2-(3,4,5-trimethoxybenzamido)acryloyl)hydrazinyl)-1-(furan-2-yl)-3-oxoprop-1-en-2-yl)-3,4,5-trimethoxybenzamide] | 1.12 ± 0.12 | IC50 (HL-7702 cells): 9.88 ± 0.14 µM |
| 206 to 208 | COc1ccc(C=C(NC(=O)c2cc(OC)c(OC)c(OC)c2)C(=O)NNC(=O)/C(=C/c2ccco2)NC(=O)c2cc(OC)c(OC)c(OC)c2)cc1 [Compound 6d, N-(3-(2-((Z)-3-(furan-2-yl)-2-(3,4,5-trimethoxybenzamido)acryloyl)hydrazinyl)-1-(4-methoxyphenyl)-3-oxoprop-1-en-2-yl)-3,4,5-trimethoxybenzamide] | 3.81 ± 0.18 |  |
| 212 to 214 | COc1cc(C=C(NC(=O)c2cc(OC)c(OC)c(OC)c2)C(=O)NNC(=O)/C(=C/c2ccco2)NC(=O)c2cc(OC)c(OC)c(OC)c2)cc(OC)c1OC [Compound 6e, N-(3-(2-((Z)-3-(furan-2-yl)-2-(3,4,5-trimethoxybenzamido)acryloyl)hydrazinyl)-3-oxo-1-(3,4,5-trimethoxyphenyl)prop-1-en-2-yl)-3,4,5-trimethoxybenzamide] | 3.98 ± 0.09 |  |

Continued, compound first:

| SMILES | melting point [°C] | IC50 (HepG2 cells) [µM] | other results |
| --- | --- | --- | --- |
| COc1cc(C(=O)NC(=Cc2ccco2)C(=O)Nc2ccc3ccccc3c2)cc(OC)c1OC (hydrate or solvate) [Compound 3, N-(1-(furan-2-yl)-3-(naphthalen-2-ylamino)-3-oxoprop-1-en-2-yl)-3,4,5-trimethoxybenzamide] | 270 to 272 |  |  |
| Nc1ccccc1NC(=O)c1cnccn1 [BG45] |  |  | IC50 (pan HDAC): 5.51 µM |
| COc1ccc(/C=C\c2cc(OC)c(OC)c(OC)c2)cc1O [CA-4, combretastatin A-4, reference compound] |  | 0.54 ± 0.04 | IC50 (HL-7702 cells): 8.86 ± 0.67 µM; tubulin polymerization percentage inhibition (β-tubulin): 88.72% |
| COc1cc(C(=O)NC(=Cc2ccco2)C(=O)Nc2cccc(Cl)c2)cc(OC)c1OC [Compound 2a, N-(3-(3-chlorophenylamino)-1-(furan-2-yl)-3-oxoprop-1-en-2-yl)-3,4,5-trimethoxybenzamide] | 248 to 250 | 68.9 ± 3.32 |  |
| COc1cc(C(=O)NC(=Cc2ccco2)C(=O)Nc2ccc(Cl)cc2)cc(OC)c1OC [Compound 2b, N-(3-(4-chlorophenylamino)-1-(furan-2-yl)-3-oxoprop-1-en-2-yl)-3,4,5-trimethoxybenzamide] | 241 to 243 | 23.3 ± 1.03 |  |
| COc1cc(C(=O)NC(=Cc2ccco2)C(=O)Nc2ccc(C)cc2)cc(OC)c1OC [Compound 2c, N-(1-(furan-2-yl)-3-oxo-3-(p-tolylamino)prop-1-en-2-yl)-3,4,5-trimethoxybenzamide] | 261 to 263 | 22 ± 0.96 |  |
| COc1cc(C(=O)NC(=Cc2ccco2)C(=O)Nc2ccc3ccccc3c2)cc(OC)c1OC [Compound 3, N-(1-(furan-2-yl)-3-(naphthalen-2-ylamino)-3-oxoprop-1-en-2-yl)-3,4,5-trimethoxybenzamide] |  | 16.2 ± 0.79 |  |
| COc1cc(C(=O)NC(=Cc2ccco2)C(=O)NNC(=O)c2ccc(NC(=O)c3cccnc3)cc2)cc(OC)c1OC [Compound 5, N-(4-(2-(3-(furan-2-yl)-2-(3,4,5 trimethoxybenzamido)acryloyl)hydrazinecarbonyl)phenyl)nicotinamide] | 217 to 219 | 3.25 ± 0.25 |  |
| Nc1ccccc1NC(=O)c1ccc(C(C(=O)Nc2ccccc2)C(=O)Nc2ccccc2)cc1 [III] |  |  | fold potency for HDAC1 compared with HDAC2 (HDAC1): 10 fold; fold potency for HDAC1 compared with HDAC3 (HDAC1): 20 fold |
| Cc1ccc(/C=N/NC(=O)c2ccc(NC(=O)c3cccnc3)cc2)cc1 [IV] |  |  | IC50 (pan HDAC): 4.65 µM |
| O=C(CCCCCCC(=O)Nc1ccccc1)NO [SAHA, suberoylanilide hydroxamic acid, reference compound] |  | 2.91 ± 0.15 |  |
